Source: the NIST ThermoML archive (doi:10.1016/j.tca.2018.11.018)
Numbers after ± are expanded uncertainties.

Assay: xn = mol fraction of the nth substance listed
Details: 100 kPa, Liquid; for viscosity: Falling or rolling sphere viscometry; for mass density: Vibrating tube method

CCCC[N+](CC)(CC)CC.[Br-] [butyltriethyl ammonium bromide] + O
Details	mass density [kg/m3]	viscosity [mPa·s]
298.15 K, x1 = 0.02	1030.2 ± 1	1.581 ± 0.096
298.15 K, x1 = 0.04	1057.3 ± 1	2.599 ± 0.16
298.15 K, x1 = 0.06	1078.8 ± 1	4.044 ± 0.24
298.15 K, x1 = 0.08	1095.3 ± 1	5.87 ± 0.35
298.15 K, x1 = 0.105	1111 ± 1	10.02 ± 0.61
298.15 K, x1 = 0.13	1122.8 ± 1.1	14.11 ± 0.85
298.15 K, x1 = 0.16	1133.5 ± 1.1	21.36 ± 1.3
298.15 K, x1 = 0.189	1140.9 ± 1.1	30.66 ± 1.9
298.15 K, x1 = 0.22	1147.3 ± 1.1	43.63 ± 2.6
298.15 K, x1 = 0.253	1152.5 ± 1.2	63.73 ± 3.9
303.15 K, x1 = 0.02	1028.2 ± 1	1.381 ± 0.083
303.15 K, x1 = 0.04	1054.7 ± 1	2.216 ± 0.13
303.15 K, x1 = 0.06	1075.6 ± 1	3.393 ± 0.2
303.15 K, x1 = 0.08	1091.9 ± 1	4.835 ± 0.29
303.15 K, x1 = 0.105	1107.4 ± 1	8.222 ± 0.5
303.15 K, x1 = 0.13	1119.1 ± 1.1	11.45 ± 0.69
303.15 K, x1 = 0.16	1129.8 ± 1.1	16.85 ± 1
303.15 K, x1 = 0.189	1137.3 ± 1.1	23.62 ± 1.4
303.15 K, x1 = 0.22	1143.7 ± 1.1	33 ± 2
303.15 K, x1 = 0.253	1148.9 ± 1.2	47.05 ± 2.9
308.15 K, x1 = 0.02	1026 ± 1	1.223 ± 0.074
308.15 K, x1 = 0.04	1051.9 ± 1	1.921 ± 0.12
308.15 K, x1 = 0.06	1072.5 ± 1	2.885 ± 0.17
308.15 K, x1 = 0.08	1088.4 ± 1	4.054 ± 0.24
308.15 K, x1 = 0.105	1103.8 ± 1	6.767 ± 0.41
308.15 K, x1 = 0.13	1115.4 ± 1	9.328 ± 0.56
308.15 K, x1 = 0.16	1126.1 ± 1.1	13.49 ± 0.82
308.15 K, x1 = 0.189	1133.6 ± 1.1	18.55 ± 1.1
308.15 K, x1 = 0.22	1140.1 ± 1.1	25.39 ± 1.5
308.15 K, x1 = 0.253	1145.4 ± 1.2	35.52 ± 2.2
313.15 K, x1 = 0.02	1023.6 ± 1	1.091 ± 0.066
313.15 K, x1 = 0.04	1049.1 ± 1	1.682 ± 0.1
313.15 K, x1 = 0.06	1069.2 ± 1	2.488 ± 0.15
313.15 K, x1 = 0.08	1084.9 ± 1	3.441 ± 0.21
313.15 K, x1 = 0.105	1100.2 ± 1	5.583 ± 0.34
313.15 K, x1 = 0.13	1111.7 ± 1	7.649 ± 0.46
313.15 K, x1 = 0.16	1122.4 ± 1.1	10.91 ± 0.66
313.15 K, x1 = 0.189	1129.9 ± 1.1	14.79 ± 0.9
313.15 K, x1 = 0.22	1136.5 ± 1.1	19.92 ± 1.2
313.15 K, x1 = 0.253	1141.9 ± 1.2	27.22 ± 1.7
318.15 K, x1 = 0.02	1021 ± 1	0.981 ± 0.059
318.15 K, x1 = 0.04	1046.1 ± 1	1.485 ± 0.09
318.15 K, x1 = 0.06	1065.9 ± 1	2.164 ± 0.13
318.15 K, x1 = 0.08	1081.4 ± 1	2.942 ± 0.18
318.15 K, x1 = 0.105	1096.5 ± 1	4.648 ± 0.28
318.15 K, x1 = 0.13	1108 ± 1	6.334 ± 0.38
318.15 K, x1 = 0.16	1118.7 ± 1.1	8.969 ± 0.54
318.15 K, x1 = 0.189	1126.2 ± 1.1	12.07 ± 0.73
318.15 K, x1 = 0.22	1132.8 ± 1.1	15.94 ± 0.97
318.15 K, x1 = 0.253	1138.3 ± 1.2	21.51 ± 1.3
323.15 K, x1 = 0.02	1018.3 ± 1	0.889 ± 0.054
323.15 K, x1 = 0.04	1042.9 ± 1	1.324 ± 0.08
323.15 K, x1 = 0.06	1062 ± 1	1.906 ± 0.12
323.15 K, x1 = 0.08	1077.8 ± 1	2.567 ± 0.15
323.15 K, x1 = 0.105	1092.8 ± 1	3.92 ± 0.24
323.15 K, x1 = 0.13	1104.2 ± 1	5.293 ± 0.32
323.15 K, x1 = 0.16	1115 ± 1.1	7.453 ± 0.45
323.15 K, x1 = 0.189	1122.5 ± 1.1	9.912 ± 0.6
323.15 K, x1 = 0.22	1129.2 ± 1.1	12.97 ± 0.79
323.15 K, x1 = 0.253	1134.7 ± 1.2	17.19 ± 1.1
328.15 K, x1 = 0.02	1015.8 ± 1	0.812 ± 0.049
328.15 K, x1 = 0.04	1039.9 ± 1	1.189 ± 0.072
328.15 K, x1 = 0.06	1059.1 ± 1	1.69 ± 0.1
328.15 K, x1 = 0.08	1074.2 ± 1	2.252 ± 0.14
328.15 K, x1 = 0.105	1089.1 ± 1	3.358 ± 0.2
328.15 K, x1 = 0.13	1100.5 ± 1	4.483 ± 0.27
328.15 K, x1 = 0.16	1111.2 ± 1.1	6.266 ± 0.38
328.15 K, x1 = 0.189	1118.8 ± 1.1	8.29 ± 0.5
328.15 K, x1 = 0.22	1125.6 ± 1.1	10.76 ± 0.65
328.15 K, x1 = 0.253	1131.2 ± 1.2	14.11 ± 0.86
333.15 K, x1 = 0.02	1013.01 ± 1	0.75 ± 0.045
333.15 K, x1 = 0.04	1036.64 ± 1	1.077 ± 0.065
333.15 K, x1 = 0.06	1055.6 ± 1	1.514 ± 0.092
333.15 K, x1 = 0.08	1070.54 ± 1	1.996 ± 0.12
333.15 K, x1 = 0.105	1085.3 ± 1	2.937 ± 0.18
333.15 K, x1 = 0.13	1096.66 ± 1.1	3.847 ± 0.23
333.15 K, x1 = 0.16	1107.44 ± 1.1	5.319 ± 0.32
333.15 K, x1 = 0.189	1115.11 ± 1.1	7.032 ± 0.43
333.15 K, x1 = 0.22	1121.89 ± 1.1	9.062 ± 0.55
333.15 K, x1 = 0.253	1127.56 ± 1.2	11.8 ± 0.72
338.15 K, x1 = 0.02	1010 ± 1	0.7 ± 0.042
338.15 K, x1 = 0.04	1033.3 ± 1	0.999 ± 0.06
338.15 K, x1 = 0.06	1052 ± 1	1.363 ± 0.082
338.15 K, x1 = 0.08	1066.8 ± 1	1.781 ± 0.11
338.15 K, x1 = 0.105	1081.5 ± 1	2.425 ± 0.15
338.15 K, x1 = 0.13	1092.8 ± 1	3.339 ± 0.2
338.15 K, x1 = 0.16	1103.7 ± 1.1	4.555 ± 0.28
338.15 K, x1 = 0.189	1111.4 ± 1.1	5.982 ± 0.36
338.15 K, x1 = 0.22	1118.2 ± 1.1	7.687 ± 0.47
338.15 K, x1 = 0.253	1124 ± 1.2	9.932 ± 0.6
343.15 K, x1 = 0.02	1006.6 ± 1	0.655 ± 0.04
343.15 K, x1 = 0.04	1029.5 ± 1	0.922 ± 0.056
343.15 K, x1 = 0.06	1048.4 ± 1	1.233 ± 0.075
343.15 K, x1 = 0.08	1063.1 ± 1	1.601 ± 0.097
343.15 K, x1 = 0.105	1077.7 ± 1	2.156 ± 0.13
343.15 K, x1 = 0.13	1089 ± 1	2.959 ± 0.18
343.15 K, x1 = 0.16	1099.8 ± 1.1	3.974 ± 0.24
343.15 K, x1 = 0.189	1107.6 ± 1.1	5.163 ± 0.31
343.15 K, x1 = 0.22	1114.6 ± 1.1	6.602 ± 0.4
343.15 K, x1 = 0.253	1120.3 ± 1.2	8.504 ± 0.52
348.15 K, x1 = 0.02	1003.4 ± 1	0.608 ± 0.037
348.15 K, x1 = 0.04	1026.5 ± 1	0.876 ± 0.053
348.15 K, x1 = 0.06	1044.7 ± 1	1.124 ± 0.068
348.15 K, x1 = 0.08	1059.3 ± 1	1.446 ± 0.087
348.15 K, x1 = 0.105	1073.8 ± 1	1.931 ± 0.12
348.15 K, x1 = 0.13	1085.1 ± 1	2.658 ± 0.16
348.15 K, x1 = 0.16	1096 ± 1.1	3.489 ± 0.21
348.15 K, x1 = 0.189	1103.8 ± 1.1	4.485 ± 0.27
348.15 K, x1 = 0.22	1110.8 ± 1.1	5.702 ± 0.35
348.15 K, x1 = 0.253	1116.7 ± 1.2	7.325 ± 0.45
